Laboratory results taken from ChEMBL document CHEMBL1137128, “Quantitative structure-activity relationship analysis of a series of 2,3-diaryl benzopyran analogues as novel selective cyclooxygenase-2 inhibitors” (Bioorg Med Chem Lett, 2004).

Target: T1, Prostaglandin G/H synthase 2 (Mus musculus, UniProt Q05769)
T1 sequence (Q05769 whole entry): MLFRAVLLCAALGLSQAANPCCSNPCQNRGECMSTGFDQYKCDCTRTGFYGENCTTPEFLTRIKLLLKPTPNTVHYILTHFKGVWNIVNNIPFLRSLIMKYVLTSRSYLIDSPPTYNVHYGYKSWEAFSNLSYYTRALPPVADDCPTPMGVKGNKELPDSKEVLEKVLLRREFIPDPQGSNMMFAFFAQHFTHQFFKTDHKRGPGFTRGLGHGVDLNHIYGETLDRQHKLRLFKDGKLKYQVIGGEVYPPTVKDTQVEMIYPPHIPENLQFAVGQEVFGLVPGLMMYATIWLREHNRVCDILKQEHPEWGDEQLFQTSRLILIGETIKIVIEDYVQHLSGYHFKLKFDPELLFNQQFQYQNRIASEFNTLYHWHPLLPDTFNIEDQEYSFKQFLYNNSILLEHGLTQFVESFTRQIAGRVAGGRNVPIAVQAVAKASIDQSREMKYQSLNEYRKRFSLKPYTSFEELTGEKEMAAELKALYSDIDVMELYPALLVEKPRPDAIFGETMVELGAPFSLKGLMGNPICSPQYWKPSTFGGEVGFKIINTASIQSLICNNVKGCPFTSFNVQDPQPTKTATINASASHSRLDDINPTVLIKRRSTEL
Test: In vitro inhibitory activity against Prostaglandin G/H synthase 2 from mouse peritoneal macrophages

IC50: 331 nM
SMILES: CS(=O)(=O)c1ccc(-c2oc3ccccc3c(=O)c2-c2cc3ccccc3s2)cc1
